Measured values as given in patent US6339045B1, “N-(unsubstituted or substituted)-4-substituted-6-(unsubstituted or substituted)phenoxy-2-pyridinecarboxamides or thiocarboxamides, processes for producing the same, and herbicides” (Kureha Kagaku Kogyo Kabushiki Kaisha, priority 1995, dated 2002).

Key:
Experiment in all cases: Herbicidal effect by foliage and soil treatment
Assay type in all cases: in vivo
Settings in all cases: 10 g ai/10a, evaluated after 14 days
[1] = tested on: sicklepod (Cassia obtusifolia)
Method in brief: (§1)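 Seedlings grown in granular soil in a 19–25 °C greenhouse to the cotyledon–two-leaf stage were sprayed over foliage and soil with compound in Tween 20/water at a set application rate. Growth was scored on a rating scale against untreated plants after 14 days.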

[2] = tested on: ivyleafspeedwell (Veronica hederaefolia)
Method in brief: as §1

[3] = tested on: wild chamomile (Matricaria chamomilla)
Method in brief: as §1

[4] = tested on: cleavers (Galium aparine)
Method in brief: as §1

[5] = tested on: common blackjack (Bidens pilosa)
Method in brief: as §1

[6] = tested on: field bindweed (Convolvulus arvensis)
Method in brief: as §1

[7] = tested on: velvetleaf (Abutilon theophrasti)
Method in brief: as §1

[8] = tested on: black nightshade (Solanum nigrum)
Method in brief: as §1

[9] = tested on: redroot pigweed (Amaranthus retroflexus)
Method in brief: as §1

[10] = tested on: common chickweed (Stellaria media)
Method in brief: as §1

[11] = tested on: kediock (Sinapis arvensis)
Method in brief: as §1

COc1cc(Oc2cccc(OC(F)(F)F)c2)nc(C(=O)NC(C)C)c1 [Compound I-39]
herbicidal activity rating, CO (Cassia obtusifolia) [1]: 5 (percentage of weeds killed was not less than 80%) | herbicidal activity rating, VH (Veronica hederaefolia) [2]: 5 (percentage of weeds killed was not less than 80%) | herbicidal activity rating, MC (Matricaria chamomilla) [3]: 4 (percentage of weeds killed was not less than 60% and less than 80%) | herbicidal activity rating, GA (Galium aparine) [4]: 5 (percentage of weeds killed was not less than 80%) | herbicidal activity rating, BP (Bidens pilosa) [5]: 3 (percentage of weeds killed was not less than 40% and less than 60%) | herbicidal activity rating, CA (Convolvulus arvensis) [6]: 5 (percentage of weeds killed was not less than 80%) | herbicidal activity rating, AT (Abutilon theophrasti) [7]: 5 (percentage of weeds killed was not less than 80%) | herbicidal activity rating, SN (Solanum nigrum) [8]: 5 (percentage of weeds killed was not less than 80%) | herbicidal activity rating, AR (Amaranthus retroflexus) [9]: 5 (percentage of weeds killed was not less than 80%) | herbicidal activity rating, SM (Stellaria media) [10]: 5 (percentage of weeds killed was not less than 80%) | herbicidal activity rating, SA (Sinapis arvensis) [11]: 5 (percentage of weeds killed was not less than 80%)

COc1cc(Oc2cccc(C(F)(F)F)c2)nc(C(=O)N2CCCC2)c1 [Compound I-302, 4-methoxy-2-{N-(pyrrolidinyl)carbonyl}-6-{3-(trifluoromethyl)phenoxy}pyridine]
herbicidal activity rating, CO (Cassia obtusifolia) [1]: 5 (percentage of weeds killed was not less than 80%) | herbicidal activity rating, VH (Veronica hederaefolia) [2]: 5 (percentage of weeds killed was not less than 80%) | herbicidal activity rating, MC (Matricaria chamomilla) [3]: 4 (percentage of weeds killed was not less than 60% and less than 80%) | herbicidal activity rating, GA (Galium aparine) [4]: 5 (percentage of weeds killed was not less than 80%) | herbicidal activity rating, BP (Bidens pilosa) [5]: 2 (percentage of weeds killed was not less than 20% and less than 40%) | herbicidal activity rating, CA (Convolvulus arvensis) [6]: 4 (percentage of weeds killed was not less than 60% and less than 80%) | herbicidal activity rating, AT (Abutilon theophrasti) [7]: 4 (percentage of weeds killed was not less than 60% and less than 80%) | herbicidal activity rating, SN (Solanum nigrum) [8]: 5 (percentage of weeds killed was not less than 80%) | herbicidal activity rating, AR (Amaranthus retroflexus) [9]: 5 (percentage of weeds killed was not less than 80%) | herbicidal activity rating, SM (Stellaria media) [10]: 5 (percentage of weeds killed was not less than 80%) | herbicidal activity rating, SA (Sinapis arvensis) [11]: 5 (percentage of weeds killed was not less than 80%)

CCNC(=S)c1cc(OC)cc(Oc2cccc(C(F)(F)F)c2)n1 [Compound I-44]
herbicidal activity rating, CO (Cassia obtusifolia) [1]: 5 (percentage of weeds killed was not less than 80%) | herbicidal activity rating, VH (Veronica hederaefolia) [2]: 5 (percentage of weeds killed was not less than 80%) | herbicidal activity rating, MC (Matricaria chamomilla) [3]: 3 (percentage of weeds killed was not less than 40% and less than 60%) | herbicidal activity rating, GA (Galium aparine) [4]: 5 (percentage of weeds killed was not less than 80%) | herbicidal activity rating, BP (Bidens pilosa) [5]: 4 (percentage of weeds killed was not less than 60% and less than 80%) | herbicidal activity rating, CA (Convolvulus arvensis) [6]: 4 (percentage of weeds killed was not less than 60% and less than 80%) | herbicidal activity rating, AT (Abutilon theophrasti) [7]: 4 (percentage of weeds killed was not less than 60% and less than 80%) | herbicidal activity rating, SN (Solanum nigrum) [8]: 5 (percentage of weeds killed was not less than 80%) | herbicidal activity rating, AR (Amaranthus retroflexus) [9]: 5 (percentage of weeds killed was not less than 80%) | herbicidal activity rating, SM (Stellaria media) [10]: 5 (percentage of weeds killed was not less than 80%) | herbicidal activity rating, SA (Sinapis arvensis) [11]: 5 (percentage of weeds killed was not less than 80%)

COc1cc(Oc2cccc(C(F)(F)F)c2)nc(C(N)=O)c1 [Compound I-123, 4-methoxy-6-{3-(trifluoromethyl)phenoxy}-2-pyridine carboxamide]
herbicidal activity rating, CO (Cassia obtusifolia) [1]: 2 (percentage of weeds killed was not less than 20% and less than 40%) | herbicidal activity rating, VH (Veronica hederaefolia) [2]: 5 (percentage of weeds killed was not less than 80%) | herbicidal activity rating, MC (Matricaria chamomilla) [3]: 1 (percentage of weeds killed was less than 20%) | herbicidal activity rating, GA (Galium aparine) [4]: 5 (percentage of weeds killed was not less than 80%) | herbicidal activity rating, BP (Bidens pilosa) [5]: 2 (percentage of weeds killed was not less than 20% and less than 40%) | herbicidal activity rating, CA (Convolvulus arvensis) [6]: 4 (percentage of weeds killed was not less than 60% and less than 80%) | herbicidal activity rating, AT (Abutilon theophrasti) [7]: 3 (percentage of weeds killed was not less than 40% and less than 60%) | herbicidal activity rating, SN (Solanum nigrum) [8]: 5 (percentage of weeds killed was not less than 80%) | herbicidal activity rating, AR (Amaranthus retroflexus) [9]: 5 (percentage of weeds killed was not less than 80%) | herbicidal activity rating, SM (Stellaria media) [10]: 5 (percentage of weeds killed was not less than 80%) | herbicidal activity rating, SA (Sinapis arvensis) [11]: 5 (percentage of weeds killed was not less than 80%)

COc1cc(Oc2cccc(C(F)(F)F)c2)nc(C(=O)NCCCSC)c1 [Compound I-76]
herbicidal activity rating, CO (Cassia obtusifolia) [1]: 5 (percentage of weeds killed was not less than 80%) | herbicidal activity rating, VH (Veronica hederaefolia) [2]: 5 (percentage of weeds killed was not less than 80%) | herbicidal activity rating, MC (Matricaria chamomilla) [3]: 5 (percentage of weeds killed was not less than 80%) | herbicidal activity rating, GA (Galium aparine) [4]: 5 (percentage of weeds killed was not less than 80%) | herbicidal activity rating, BP (Bidens pilosa) [5]: 4 (percentage of weeds killed was not less than 60% and less than 80%) | herbicidal activity rating, CA (Convolvulus arvensis) [6]: 3 (percentage of weeds killed was not less than 40% and less than 60%) | herbicidal activity rating, AT (Abutilon theophrasti) [7]: 3 (percentage of weeds killed was not less than 40% and less than 60%) | herbicidal activity rating, SN (Solanum nigrum) [8]: 5 (percentage of weeds killed was not less than 80%) | herbicidal activity rating, AR (Amaranthus retroflexus) [9]: 5 (percentage of weeds killed was not less than 80%) | herbicidal activity rating, SM (Stellaria media) [10]: 4 (percentage of weeds killed was not less than 60% and less than 80%) | herbicidal activity rating, SA (Sinapis arvensis) [11]: 5 (percentage of weeds killed was not less than 80%)
